We go through 24 compounds from patent US20240398828A1, “HETERO-ATOM CONTAINING COMPOUNDS AND USES THEREOF” (Kumquat Biosciences Inc., priority 2021, published 2024).

As a reminder, the IC50 is the point on the concentration scale where inhibition reaches its midpoint.

The target of one experiment is T1, PTPN2 (i.e., TC-PTP) (Homo sapiens, UniProt P17706).
T1 sequence (P17706 1-415): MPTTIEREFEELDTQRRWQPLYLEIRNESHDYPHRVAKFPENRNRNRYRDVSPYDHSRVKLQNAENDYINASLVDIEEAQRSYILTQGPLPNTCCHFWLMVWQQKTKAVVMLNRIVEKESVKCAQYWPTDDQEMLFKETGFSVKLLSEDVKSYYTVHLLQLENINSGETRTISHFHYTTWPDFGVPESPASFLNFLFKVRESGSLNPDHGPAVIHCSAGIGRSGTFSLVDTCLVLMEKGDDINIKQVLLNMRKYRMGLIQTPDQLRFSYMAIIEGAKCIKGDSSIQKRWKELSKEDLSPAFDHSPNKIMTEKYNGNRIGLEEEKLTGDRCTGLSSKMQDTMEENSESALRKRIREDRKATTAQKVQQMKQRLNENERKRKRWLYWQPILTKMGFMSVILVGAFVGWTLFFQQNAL
In words: Phosphatase activity assay (DiFMUP substrate), PTPN2. To be noted: compounds binned ≤1 uM or >1 uM. In kind it is biochemical. A digest of the protocol: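 Enzyme (e.g. PTPN2 0.025 ng/ul) mixed about 2 min with compound at 10 serial concentrations in 50 mM HEPES pH 7.5, 150 mM NaCl, 0.5 mM EDTA, 1 mM DTT, 0.001% Tween-20 at room temperature. DiFMUP added at each enzyme's Km (about 45 μM for PTPN2). DiFMU fluorescence (ex 360/em 450 nm) followed 15-30 min; IC50 from 4-parameter fit of rates.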

Another experiment deals with T2, PTPN1 (i.e., PTP1B) (Homo sapiens, UniProt P18031).
T2 sequence (P18031 1-435): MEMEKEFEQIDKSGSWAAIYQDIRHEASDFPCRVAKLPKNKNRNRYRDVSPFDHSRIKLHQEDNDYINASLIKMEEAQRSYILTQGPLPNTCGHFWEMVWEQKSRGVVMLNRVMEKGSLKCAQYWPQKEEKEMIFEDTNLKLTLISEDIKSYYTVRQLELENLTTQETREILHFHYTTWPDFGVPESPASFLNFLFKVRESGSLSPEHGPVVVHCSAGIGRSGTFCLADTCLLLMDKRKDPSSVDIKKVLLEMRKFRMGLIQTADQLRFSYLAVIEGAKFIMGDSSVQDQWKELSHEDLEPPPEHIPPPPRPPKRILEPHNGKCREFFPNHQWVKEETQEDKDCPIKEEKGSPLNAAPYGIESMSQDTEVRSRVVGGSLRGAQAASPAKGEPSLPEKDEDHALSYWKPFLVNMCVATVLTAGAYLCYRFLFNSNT
The experiment in a line: Phosphatase activity assay (DiFMUP substrate), PTP1B. In kind it is biochemical. To be noted: compounds binned ≤1 uM or >1 uM. The gist of the method:
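First, serially diluted inhibitor is mixed about 2 minutes with enzyme in pH 7.5 HEPES/NaCl/EDTA/DTT/Tween-20 buffer. Next, DiFMUP is added at the enzyme's Km, approximately 45 μM for PTPN2. Finally, DiFMU appearance is read continuously at room temperature and rates are fitted for IC50.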

With `CC(C)CCn1cc(-c2ccc(O)c(N3CC(=O)NS3(=O)=O)n2)cn1` [Compound 134, 5-(3-hydroxy-6-(1-isopentyl-1H-pyrazol-4-yl)pyridin-2-yl)-1,2,5-thiadiazolidin-3-one 1,1-dioxide], the half-maximal inhibitory concentration (IC50) is over 1 µM on PTPN2 (i.e., TC-PTP) and over 1 µM at PTPN1 (i.e., PTP1B).
Regarding `O=C1CN(c2c(O)ccc(-c3cnn(CC4(O)CCC4)c3)c2F)S(=O)(=O)N1` [Compound 307, 5-(2-fluoro-6-hydroxy-3-(1-((1-hydroxycyclobutyl)methyl)-1H-pyrazol-4-yl)phenyl)-1,2,5-thiadiazolidin-3-one 1,1-dioxide], the concentration for half-maximal inhibition (IC50) on PTPN2 (i.e., TC-PTP) was at most 1 µM; on PTPN1 (i.e., PTP1B), at most 1 µM.
As to `O=C1CN(c2c(O)ccc(C3=CCN(CC4CC4)C3)c2F)S(=O)(=O)N1` [Compound 496, 5-(3-(1-(cyclopropylmethyl)-2,5-dihydro-1H-pyrrol-3-yl)-2-fluoro-6-hydroxyphenyl)-1,2,5-thiadiazolidin-3-one 1,1-dioxide], the IC50 at PTPN2 (i.e., TC-PTP) is at most 1 µM; on PTPN1 (i.e., PTP1B), at most 1 µM.
With `N#CCCc1cc(-c2ccc(O)c(N3CC(=O)NS3(=O)=O)c2F)n[nH]1` [Compound 373, 3-(3-(3-(1,1-dioxido-4-oxo-1,2,5-thiadiazolidin-2-yl)-2-fluoro-4-hydroxyphenyl)-1H-pyrazol-5-yl)propanenitrile], the half-inhibitory concentration (IC50) is at most 1 µM at PTPN2 (i.e., TC-PTP) and at most 1 µM on PTPN1 (i.e., PTP1B).
For the compound `CC(C)C1C=C(c2ccc(O)c(N3CC(=O)NS3(=O)=O)c2F)CN1` (stereo not drawn) [Compound 482, 5-(2-fluoro-6-hydroxy-3-(5-isopropyl-2,5-dihydro-1H-pyrrol-3-yl)phenyl)-1,2,5-thiadiazolidin-3-one 1,1-dioxide], the IC50 on PTPN2 (i.e., TC-PTP) was at most 1 µM; at PTPN1 (i.e., PTP1B), at most 1 µM.
In the case of `O=C1CN(c2c(O)ccc(-c3cc(C(=O)N4CCOCC4)n[nH]3)c2F)S(=O)(=O)N1` [Compound 336, 5-(2-fluoro-6-hydroxy-3-(3-(morpholine-4-carbonyl)-1H-pyrazol-5-yl)phenyl)-1,2,5-thiadiazolidin-3-one 1,1-dioxide], the concentration for half-maximal inhibition (IC50) at PTPN2 (i.e., TC-PTP) was at most 1 µM; on PTPN1 (i.e., PTP1B), at most 1 µM.
For the compound `Cc1ncc(-c2ccc(O)c(N3CC(=O)NS3(=O)=O)c2F)cn1` [Compound 139, 5-(2-fluoro-6-hydroxy-3-(2-methylpyrimidin-5-yl)phenyl)-1,2,5-thiadiazolidin-3-one 1,1-dioxide], the IC50 is at most 1 µM on PTPN2 (i.e., TC-PTP) and at most 1 µM on PTPN1 (i.e., PTP1B).
Turning to `N#Cc1ccc(-n2cnc(-c3ccc(O)c(N4CC(=O)NS4(=O)=O)c3F)c2)cc1F` [Compound 287, 4-(4-(3-(1,1-dioxido-4-oxo-1,2,5-thiadiazolidin-2-yl)-2-fluoro-4-hydroxyphenyl)-1H-imidazol-1-yl)-2-fluorobenzonitrile], the IC50 was at most 1 µM at PTPN2 (i.e., TC-PTP) and at most 1 µM on PTPN1 (i.e., PTP1B).
In the case of `O=C1CN(c2c(O)ccc(-c3cnn(C4CC4)c3)c2F)S(=O)(=O)N1` [Compound 133, 5-(3-(1-cyclopropyl-1H-pyrazol-4-yl)-2-fluoro-6-hydroxyphenyl)-1,2,5-thiadiazolidin-3-one 1,1-dioxide], the IC50 is at most 1 µM on PTPN2 (i.e., TC-PTP) and at most 1 µM at PTPN1 (i.e., PTP1B).
Consider `O=C1CN(c2c(O)ccc(-c3cc(C4=CCOCC4)n[nH]3)c2F)S(=O)(=O)N1` [Compound 402, 5-(3-(3-(3,6-dihydro-2H-pyran-4-yl)-1H-pyrazol-5-yl)-2-fluoro-6-hydroxyphenyl)-1,2,5-thiadiazolidin-3-one 1,1-dioxide], for which the half-maximal inhibitory concentration (IC50) on PTPN2 (i.e., TC-PTP) was at most 1 µM; at PTPN1 (i.e., PTP1B) it was at most 1 µM.
On to `CC(C)CCN1CC=C(c2ccc(O)c(N3CC(=O)NS3(=O)=O)c2F)C1` [Compound 544, 5-(2-fluoro-6-hydroxy-3-(1-isopentyl-2,5-dihydro-1H-pyrrol-3-yl)phenyl)-1,2,5-thiadiazolidin-3-one 1,1-dioxide], for which the half-maximal inhibitory concentration (IC50) is at most 1 µM at PTPN2 (i.e., TC-PTP) and at most 1 µM at PTPN1 (i.e., PTP1B).
For the compound `CCC1C=C(c2ccc(O)c(N3CC(=O)NS3(=O)=O)c2F)CN1` (stereo not drawn) [Compound 493, 5-(3-(5-ethyl-2,5-dihydro-1H-pyrrol-3-yl)-2-fluoro-6-hydroxyphenyl)-1,2,5-thiadiazolidin-3-one 1,1-dioxide], the 50% inhibitory concentration (IC50) on PTPN2 (i.e., TC-PTP) is at most 1 µM; on PTPN1 (i.e., PTP1B), at most 1 µM.
In the case of `Cc1cc(-c2ccc(O)c(N3CC(=O)NS3(=O)=O)c2F)sn1` [Compound 283, 5-(2-fluoro-6-hydroxy-3-(3-methylisothiazol-5-yl)phenyl)-1,2,5-thiadiazolidin-3-one 1,1-dioxide], the IC50 is at most 1 µM on PTPN2 (i.e., TC-PTP) and at most 1 µM on PTPN1 (i.e., PTP1B).
As for `O=C1CN(c2c(O)ccc(-c3cnn(CC(F)(F)F)c3)c2F)S(=O)(=O)N1` [Compound 366, 5-(2-fluoro-6-hydroxy-3-(1-(2,2,2-trifluoroethyl)-1H-pyrazol-4-yl)phenyl)-1,2,5-thiadiazolidin-3-one 1,1-dioxide], the IC50 on PTPN2 (i.e., TC-PTP) is at most 1 µM; on PTPN1 (i.e., PTP1B) it was at most 1 µM.
In the case of `O=C1CN(c2c(O)ccc(-c3cnn(C(F)F)c3)c2F)S(=O)(=O)N1` [Compound 273, 5-(3-(1-(difluoromethyl)-1H-pyrazol-4-yl)-2-fluoro-6-hydroxyphenyl)-1,2,5-thiadiazolidin-3-one 1,1-dioxide], the IC50 at PTPN2 (i.e., TC-PTP) was at most 1 µM; on PTPN1 (i.e., PTP1B), at most 1 µM.
Regarding `CC(C)CCn1cc(-c2cc(O)cc(N3CC(=O)NS3(=O)=O)c2F)cn1` [Compound 221, 5-(2-fluoro-5-hydroxy-3-(1-isopentyl-1H-pyrazol-4-yl)phenyl)-1,2,5-thiadiazolidin-3-one 1,1-dioxide], the IC50 on PTPN2 (i.e., TC-PTP) is over 1 µM; on PTPN1 (i.e., PTP1B) it was over 1 µM.
For `O=C1CN(c2c(O)ccc(-c3cnn(C(F)(F)F)c3)c2F)S(=O)(=O)N1` [Compound 264, 5-(2-fluoro-6-hydroxy-3-(1-(trifluoromethyl)-1H-pyrazol-4-yl)phenyl)-1,2,5-thiadiazolidin-3-one 1,1-dioxide], the IC50 on PTPN2 (i.e., TC-PTP) was at most 1 µM; at PTPN1 (i.e., PTP1B), at most 1 µM.
With `COCC1C=C(c2ccc(O)c(N3CC(=O)NS3(=O)=O)c2F)CN1` (stereo not drawn) [Compound 481, 5-(2-fluoro-6-hydroxy-3-(5-(methoxymethyl)-2,5-dihydro-1H-pyrrol-3-yl)phenyl)-1,2,5-thiadiazolidin-3-one 1,1-dioxide], the half-maximal inhibitory concentration (IC50) is at most 1 µM on PTPN2 (i.e., TC-PTP) and at most 1 µM on PTPN1 (i.e., PTP1B).
Consider `O=C1CN(c2c(O)ccc(-c3cc(-c4ccccc4)n[nH]3)c2F)S(=O)(=O)N1` [Compound 124, 5-(2-fluoro-6-hydroxy-3-(3-phenyl-1H-pyrazol-5-yl)phenyl)-1,2,5-thiadiazolidin-3-one 1,1-dioxide], for which the IC50 on PTPN2 (i.e., TC-PTP) is at most 1 µM; on PTPN1 (i.e., PTP1B), at most 1 µM.
Take `O=C1CN(c2c(O)ccc(-c3cc(C4CC4C(F)F)n[nH]3)c2F)S(=O)(=O)N1` (stereo not drawn) [Compound 492, 5-(3-(3-(2-(difluoromethyl)cyclopropyl)-1H-pyrazol-5-yl)-2-fluoro-6-hydroxyphenyl)-1,2,5-thiadiazolidin-3-one 1,1-dioxide]: the 50% inhibitory concentration (IC50) is at most 1 µM on PTPN2 (i.e., TC-PTP) and at most 1 µM at PTPN1 (i.e., PTP1B).
For the compound `O=C1CN(c2c(O)ccc(-c3cc(CC(F)F)n[nH]3)c2F)S(=O)(=O)N1` [Compound 524, 5-(3-(3-(2,2-difluoroethyl)-1H-pyrazol-5-yl)-2-fluoro-6-hydroxyphenyl)-1,2,5-thiadiazolidin-3-one 1,1-dioxide], the concentration for half-maximal inhibition (IC50) on PTPN2 (i.e., TC-PTP) is at most 1 µM; at PTPN1 (i.e., PTP1B) it was at most 1 µM.
As to `O=C1CN(c2c(O)ccc(-c3ccn(CC4CC4)c3)c2F)S(=O)(=O)N1` [Compound 240, 5-(3-(1-(cyclopropylmethyl)-1H-pyrrol-3-yl)-2-fluoro-6-hydroxyphenyl)-1,2,5-thiadiazolidin-3-one 1,1-dioxide], the half-inhibitory concentration (IC50) is at most 1 µM at PTPN2 (i.e., TC-PTP) and at most 1 µM at PTPN1 (i.e., PTP1B).
As for `N#C[C@H]1CC[C@@H](n2cc(-c3ccc(O)c(N4CC(=O)NS4(=O)=O)c3F)cn2)CC1` [Compound 280, (1s,4s)-4-(4-(3-(1,1-dioxido-4-oxo-1,2,5-thiadiazolidin-2-yl)-2-fluoro-4-hydroxyphenyl)-1H-pyrazol-1-yl)cyclohexane-1-carbonitrile], the 50% inhibitory concentration (IC50) was at most 1 µM at PTPN2 (i.e., TC-PTP) and at most 1 µM at PTPN1 (i.e., PTP1B).
With `N#CC1(Cn2cc(-c3ccc(O)c(N4CC(=O)NS4(=O)=O)c3F)cn2)CCC1` [Compound 313, 1-((4-(3-(1,1-dioxido-4-oxo-1,2,5-thiadiazolidin-2-yl)-2-fluoro-4-hydroxyphenyl)-1H-pyrazol-1-yl)methyl)cyclobutane-1-carbonitrile], the IC50 on PTPN2 (i.e., TC-PTP) is at most 1 µM; at PTPN1 (i.e., PTP1B) it was at most 1 µM.
